Measured values as given in paper PMC12388884, “Discovery of Small-Molecule PD-L1 Inhibitors via Virtual Screening and Their Immune-Mediated Anti-Tumor Effects” (Pharmaceuticals, 2025).
Numbered stars: 1 amine (or outer) side, 2 acyl side, 3 side chain; on linkers, the order of the positions; unused ones are H or OH. Bridge positions count the residues as written; N and C are the ends. Square brackets hold non-standard residues; d marks the D form. Peptide text beside a SMILES is read from it. * marks the point of attachment. pTerphenylCO(4''-OnC5H11) = CCCCCOc1ccc(-c2ccc(-c3ccc(C(=O)*)cc3)cc2)cc1; Orn(4R-OH,5R-OH) = O=C([C@H](C[C@@H](O)[C@@H](O)N[*:3])N[*:1])[*:2]; hTyr(3S-OH,4S-OH) = N[C@H](C(=O)O)[C@H](O)[C@@H](O)c1ccc(O)cc1; Pro(3S-OH,4S-Me) = C[C@H]1CN[C@H](C(=O)O)[C@H]1O; Hyp = O=C(O)[C@@H]1C[C@@H](O)CN1

Biological target: T1, PD-L1 (Homo sapiens, UniProt Q9NZQ7)
T1 construct: gene CD274
T1 sequence (Q9NZQ7 19-290): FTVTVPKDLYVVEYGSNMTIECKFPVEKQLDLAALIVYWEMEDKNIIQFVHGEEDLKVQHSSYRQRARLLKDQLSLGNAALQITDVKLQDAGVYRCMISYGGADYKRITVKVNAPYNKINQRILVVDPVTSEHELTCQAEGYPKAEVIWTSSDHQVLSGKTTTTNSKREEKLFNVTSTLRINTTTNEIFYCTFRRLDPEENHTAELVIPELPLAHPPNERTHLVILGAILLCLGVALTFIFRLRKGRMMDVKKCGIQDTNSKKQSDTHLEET
Assay: bio-layer interferometry (BLI), immobilized recombinant human PD-L1, […] global kinetic fit
Format: binding

CCCCCOc1ccc(-c2ccc(-c3ccc(C(=O)N[C@H]4C[C@@H](O)[C@@H](O)NC(=O)[C@@H]5[C@@H](O)[C@@H](C)CN5C(=O)[C@H]([C@@H](C)O)NC(=O)[C@H]([C@H](O)[C@@H](O)c5ccc(O)cc5)NC(=O)[C@@H]5C[C@@H](O)CN5C(=O)[C@H]([C@@H](C)O)NC4=O)cc3)cc2)cc1 [anidulafungin] ({pTerphenylCO(4''-OnC5H11)}-[Orn(4R-OH,5R-OH)]T[Hyp][hTyr(3S-OH,4S-OH)]T[Pro(3S-OH,4S-Me)]; lactam 1-C)
Kd: 76.9 µM
